Assays:
Type in all cases: ADME
[1] = target: Cytochrome P450 2C19 (Homo sapiens, UniProt P33261); assay: Inhibition of CYP2C19 in human liver microsomes using (S)-mephenytoin as substrate preincubated for 20 mins followed by substrate addition measured after 30 mins in presence of NADPH by LC-MS/MS analysis
[2] = target: T1, Cytochrome P450 2B6 (Homo sapiens, UniProt P20813); assay: Inhibition of CYP2B6 in human liver microsomes assessed as enzyme-mediated metabolite formation using bupropion as substrate incubated for 5 mins followed by NADPH addition measured after 30 mins by LC-MS/MS analysis
T1 sequence (P20813 whole entry): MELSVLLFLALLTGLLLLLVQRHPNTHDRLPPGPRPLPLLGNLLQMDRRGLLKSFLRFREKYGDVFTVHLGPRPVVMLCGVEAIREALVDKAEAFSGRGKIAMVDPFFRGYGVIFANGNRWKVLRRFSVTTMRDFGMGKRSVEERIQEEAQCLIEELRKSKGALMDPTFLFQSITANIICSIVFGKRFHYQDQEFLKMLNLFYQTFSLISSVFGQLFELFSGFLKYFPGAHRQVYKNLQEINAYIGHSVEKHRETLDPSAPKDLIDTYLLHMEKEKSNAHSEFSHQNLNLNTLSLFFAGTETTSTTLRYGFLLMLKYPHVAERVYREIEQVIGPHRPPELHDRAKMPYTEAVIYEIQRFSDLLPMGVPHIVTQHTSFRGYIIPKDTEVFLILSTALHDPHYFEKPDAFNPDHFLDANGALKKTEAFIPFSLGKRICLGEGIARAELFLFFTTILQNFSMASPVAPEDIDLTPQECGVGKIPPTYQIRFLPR

[3] = target: T2, CYP2B6 (Homo sapiens, UniProt P20813); assay: Inhibition of CYP2B6 in human liver microsomes assessed as enzyme-mediated metabolite formation at 3 uM using bupropion as substrate incubated for 5 mins followed by NADPH addition measured after 30 mins by LC-MS/MS analysis relative to control; design: scale not given: the % may be the effect or the level left; conditions: probe bupropion, read-out: Activity
T2 sequence (P20813 whole entry): T1 sequence (P20813 whole entry)

[4] = target: Cytochrome P450 2D6 (Homo sapiens, UniProt P10635); assay: Inhibition of CYP2D6 in human liver microsomes assessed as enzyme-mediated metabolite formation using dextromethorphan as substrate incubated for 5 mins followed by NADPH addition measured after 30 mins by LC-MS/MS analysis
[5] = target: T2, CYP2B6; assay: Inhibition of CYP2B6 in human liver microsomes assessed as enzyme-mediated metabolite formation at 1 uM using bupropion as substrate incubated for 5 mins followed by NADPH addition measured after 30 mins by LC-MS/MS analysis relative to control; design: scale not given: the % may be the effect or the level left; conditions: probe bupropion, read-out: Activity
[6] = target: T2, CYP2B6; assay: Inhibition of CYP2B6 in human liver microsomes assessed as enzyme-mediated metabolite formation at 30 uM using bupropion as substrate preincubated for 20 mins followed by substrate addition measured after 30 mins in presence of NADPH by LC-MS/MS analysis relative to control; design: scale not given: the % may be the effect or the level left; conditions: probe bupropion, read-out: Activity
[7] = target: T2, CYP2B6; assay: Inhibition of CYP2B6 in human liver microsomes assessed as enzyme-mediated metabolite formation at 10 uM using bupropion as substrate incubated for 5 mins followed by NADPH addition measured after 30 mins by LC-MS/MS analysis relative to control; design: scale not given: the % may be the effect or the level left; conditions: probe bupropion, read-out: Activity
[8] = target: T3, CYP1A2 (Homo sapiens, UniProt P05177); assay: Inhibition of CYP1A2 in human liver microsomes assessed as enzyme-mediated metabolite formation at 0.3 uM using phenacetin as substrate incubated for 5 mins followed by NADPH addition measured after 30 mins by LC-MS/MS analysis relative to control; design: scale not given: the % may be the effect or the level left; conditions: probe phenacetin, read-out: Activity
T3 sequence (P05177 whole entry): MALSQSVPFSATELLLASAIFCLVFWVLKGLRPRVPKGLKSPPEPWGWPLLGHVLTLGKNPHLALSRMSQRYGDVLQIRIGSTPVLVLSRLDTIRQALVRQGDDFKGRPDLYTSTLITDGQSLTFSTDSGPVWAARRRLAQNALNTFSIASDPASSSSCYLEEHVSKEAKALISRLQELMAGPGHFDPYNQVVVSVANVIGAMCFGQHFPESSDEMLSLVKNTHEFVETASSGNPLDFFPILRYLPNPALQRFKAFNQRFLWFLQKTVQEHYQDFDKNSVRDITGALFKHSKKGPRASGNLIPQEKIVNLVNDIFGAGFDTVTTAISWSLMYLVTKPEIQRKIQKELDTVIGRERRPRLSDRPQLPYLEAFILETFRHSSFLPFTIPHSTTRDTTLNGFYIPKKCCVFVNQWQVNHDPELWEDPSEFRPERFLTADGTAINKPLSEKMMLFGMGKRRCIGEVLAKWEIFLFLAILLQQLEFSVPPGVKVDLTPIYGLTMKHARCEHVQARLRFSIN

[9] = target: CYP2C9 (Homo sapiens, UniProt P11712); assay: Inhibition of CYP2C9 in human liver microsomes assessed as enzyme-mediated metabolite formation at 0.1 uM using diclofenac as substrate incubated for 5 mins followed by NADPH addition measured after 30 mins by LC-MS/MS analysis relative to control; design: scale not given: the % may be the effect or the level left; conditions: probe diclofenac, read-out: Activity
[10] = target: T4, CYP2C8 (Homo sapiens, UniProt P10632); assay: Inhibition of CYP2C8 in human liver microsomes assessed as enzyme-mediated metabolite formation at 10 uM using paclitaxel as substrate preincubated for 20 mins followed by substrate addition measured after 30 mins in presence of NADPH by LC-MS/MS analysis relative to control; design: scale not given: the % may be the effect or the level left; conditions: probe paclitaxel, read-out: Activity
T4 sequence (P10632 whole entry): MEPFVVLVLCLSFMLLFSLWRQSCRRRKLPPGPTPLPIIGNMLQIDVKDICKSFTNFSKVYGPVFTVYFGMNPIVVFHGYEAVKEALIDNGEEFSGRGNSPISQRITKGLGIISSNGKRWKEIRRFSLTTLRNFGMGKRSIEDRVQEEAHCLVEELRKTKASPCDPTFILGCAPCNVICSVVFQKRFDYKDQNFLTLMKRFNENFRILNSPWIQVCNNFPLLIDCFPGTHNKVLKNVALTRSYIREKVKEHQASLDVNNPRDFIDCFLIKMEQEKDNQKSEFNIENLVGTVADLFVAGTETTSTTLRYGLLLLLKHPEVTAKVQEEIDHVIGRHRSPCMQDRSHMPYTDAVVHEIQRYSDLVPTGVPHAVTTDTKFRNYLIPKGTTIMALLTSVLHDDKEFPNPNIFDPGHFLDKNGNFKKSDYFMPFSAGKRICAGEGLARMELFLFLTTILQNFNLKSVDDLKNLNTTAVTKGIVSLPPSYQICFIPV

[11] = target: CYP3A4 (Homo sapiens, UniProt P08684); assay: Inhibition of CYP3A4 in human liver microsomes assessed as enzyme-mediated metabolite formation at 0.1 uM using testosterone as substrate preincubated for 20 mins followed by substrate addition measured after 30 mins in presence of NADPH by LC-MS/MS analysis relative to control; design: scale not given: the % may be the effect or the level left; conditions: probe testosterone, read-out: Activity
[12] = target: T3, CYP1A2; assay: Inhibition of CYP1A2 in human liver microsomes assessed as enzyme-mediated metabolite formation at 30 uM using phenacetin as substrate incubated for 5 mins followed by NADPH addition measured after 30 mins by LC-MS/MS analysis relative to control; design: scale not given: the % may be the effect or the level left; conditions: probe phenacetin, read-out: Activity

Chain of Cytochrome P450 2D6 (P10635 whole entry): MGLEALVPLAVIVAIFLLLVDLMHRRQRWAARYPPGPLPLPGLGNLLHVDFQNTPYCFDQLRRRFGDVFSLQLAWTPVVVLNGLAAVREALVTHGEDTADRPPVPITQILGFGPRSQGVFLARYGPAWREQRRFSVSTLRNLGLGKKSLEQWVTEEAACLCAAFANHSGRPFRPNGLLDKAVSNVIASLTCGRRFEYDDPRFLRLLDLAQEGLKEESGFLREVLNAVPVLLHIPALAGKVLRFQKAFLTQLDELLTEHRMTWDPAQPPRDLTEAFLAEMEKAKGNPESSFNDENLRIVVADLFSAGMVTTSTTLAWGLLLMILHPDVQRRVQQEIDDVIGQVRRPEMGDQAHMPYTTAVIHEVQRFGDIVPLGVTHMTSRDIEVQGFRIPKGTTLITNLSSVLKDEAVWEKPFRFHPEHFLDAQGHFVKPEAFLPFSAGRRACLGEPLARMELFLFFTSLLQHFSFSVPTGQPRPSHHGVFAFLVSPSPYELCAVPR
Chain of Cytochrome P450 2C19 (P33261 whole entry): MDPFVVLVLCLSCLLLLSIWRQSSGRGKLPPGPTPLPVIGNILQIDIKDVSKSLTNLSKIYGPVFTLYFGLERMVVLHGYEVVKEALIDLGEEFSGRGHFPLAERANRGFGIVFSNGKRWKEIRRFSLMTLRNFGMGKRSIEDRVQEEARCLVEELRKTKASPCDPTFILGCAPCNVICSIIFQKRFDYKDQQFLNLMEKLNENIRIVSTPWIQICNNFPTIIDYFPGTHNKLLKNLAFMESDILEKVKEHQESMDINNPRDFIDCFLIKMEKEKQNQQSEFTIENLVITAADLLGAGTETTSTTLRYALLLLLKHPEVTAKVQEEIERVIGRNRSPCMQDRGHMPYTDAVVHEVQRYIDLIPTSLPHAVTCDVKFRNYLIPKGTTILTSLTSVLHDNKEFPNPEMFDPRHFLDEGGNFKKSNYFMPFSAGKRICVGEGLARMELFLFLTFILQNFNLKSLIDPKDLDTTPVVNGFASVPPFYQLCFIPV
Chain of CYP3A4 (P08684 whole entry): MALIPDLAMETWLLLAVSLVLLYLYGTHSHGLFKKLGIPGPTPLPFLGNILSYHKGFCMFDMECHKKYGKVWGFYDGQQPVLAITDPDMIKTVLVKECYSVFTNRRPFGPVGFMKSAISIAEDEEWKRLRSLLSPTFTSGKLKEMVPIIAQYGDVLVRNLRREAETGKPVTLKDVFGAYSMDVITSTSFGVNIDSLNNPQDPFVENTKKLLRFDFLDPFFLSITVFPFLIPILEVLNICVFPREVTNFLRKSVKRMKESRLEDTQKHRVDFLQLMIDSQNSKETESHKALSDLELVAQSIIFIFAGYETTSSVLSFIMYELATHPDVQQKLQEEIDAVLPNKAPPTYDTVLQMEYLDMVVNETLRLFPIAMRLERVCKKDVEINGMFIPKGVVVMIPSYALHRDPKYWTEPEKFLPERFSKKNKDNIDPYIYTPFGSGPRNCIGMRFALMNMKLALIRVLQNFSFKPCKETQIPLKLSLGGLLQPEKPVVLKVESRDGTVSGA
Chain of CYP2C9 (P11712 whole entry): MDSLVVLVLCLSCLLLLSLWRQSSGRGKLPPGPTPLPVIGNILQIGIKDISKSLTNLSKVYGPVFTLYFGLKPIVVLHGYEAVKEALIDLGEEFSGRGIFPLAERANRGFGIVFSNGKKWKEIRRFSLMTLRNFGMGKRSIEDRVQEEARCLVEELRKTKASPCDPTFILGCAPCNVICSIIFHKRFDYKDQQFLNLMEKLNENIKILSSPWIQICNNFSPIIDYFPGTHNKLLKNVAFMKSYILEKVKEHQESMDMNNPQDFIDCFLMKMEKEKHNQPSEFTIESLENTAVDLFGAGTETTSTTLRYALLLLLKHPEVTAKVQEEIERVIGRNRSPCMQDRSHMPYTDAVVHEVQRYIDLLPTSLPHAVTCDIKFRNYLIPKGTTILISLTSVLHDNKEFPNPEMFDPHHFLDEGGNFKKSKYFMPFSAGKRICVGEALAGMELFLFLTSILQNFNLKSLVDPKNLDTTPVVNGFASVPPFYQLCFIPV

- IC50 [1]: 3.6 µM
- IC50 [2]: 15.4 µM
- activity at 0.5 h, 3 µM [3]: 65.7%
- IC50 [4]: > 30 µM
- activity at 0.5 h, 1 µM [5]: 63.2%
- activity at 0.5 h, 30 µM [6]: 45.5%
- activity at 0.5 h, 10 µM [7]: 53.9%
- activity at 0.5 h, 0.3 µM [8]: 97.8%
- activity at 0.5 h, 0.1 µM [9]: 120%
- activity at 0.5 h, 10 µM [10]: 49%
- activity at 0.5 h, 0.1 µM [11]: 93.4%
- activity at 0.5 h, 30 µM [12]: 35.5%
Compound: CCCCCCCC(=O)CCc1ccc(O)c(OC)c1

Source: ChEMBL document CHEMBL4007467, “Effects of 6-paradol, an unsaturated ketone from gingers, on cytochrome P450-mediated drug metabolism” (Bioorg Med Chem Lett, 2017)
